Measurements from PMC7906020, “Trp-Containing Antibacterial Peptides Impair Quorum Sensing and Biofilm Development in Multidrug-Resistant Pseudomonas aeruginosa and Exhibit Synergistic Effects With Antibiotics” (Frontiers in Microbiology, 2021).
Values after ≈ are worked out from the molar mass of the structure shown. Peptide text beside a SMILES is read from it.

Key:
[1] = tested on: LasB elastase of MRPA0108; assay: LasB elastase activity, elastin-Congo red method; assay type: cell-based, Pseudomonas aeruginosa; conditions: peptide at 1/4 × MIC, 24 h, 37°C; ECR substrate, OD495/OD600; vs control; triplicate
Procedure: The culture supernatant was obtained after centrifugation at 12,000×g for 10 min. (1) LasB elastase activity was measured using elastin-Congo red (ECR) as the substrate, as described by [Pattnaik et al. (2018)]. Briefly, 100 μl of the culture supernatant was added to 900 μl of ECR buffer (100 mM Tris-HCl, 1 mM CaCl2, pH 7.5) containing 10 mg of ECR and then incubated with shaking at 37°C for 18 h. Then, 100 μl of 0.12 M EDTA was added to stop the reaction. The insoluble ECR was removed by centrifugation, and the supernatant absorbance was measured at 495 nm. The optical density (OD) 495 nm/OD 600 nm represents the elastase activity. (2) LasA protease activity was measured as follows ([Pattnaik et al., 2018]): first, the culture supernatant was filtered to remove the bacterial cells, and then 150 μl of sterile-filtered supernatant was added to 2% azocasein (prepared in 50 mM Tris-HCl) and incubated for 4 h at 37°C. Trichloroacetic acid (TCA, 10%) was added to precipitate the undigested substrate. After centrifugation at 10,000 rpm for 10 min, 1 M NaOH was added to the supernatant, and the relative protease activity was measured at OD 440 nm. (3) The pyocyanin assay was based on the absorbance of excreted pyocyanin at 520 nm in an acidic solution ([Kong et al., 2005]). Three milliliters of culture supernatant were mixed with 2 ml of chloroform for 20 min, and then the pyocyanin from the chloroform phase was reextracted using 0.2 M HCl for 15 min to obtain a pink-colored pyocyanin solution. The OD 520 nm was measured to evaluate the change in pyocyanin content. (4) Rhamnolipid detection was carried out as previously described ([Wittgens et al., 2011]). Briefly, 500 μl of culture supernatant was mixed with 500 μl of ethyl acetate and vortexed vigorously for 15 s to extract rhamnolipid. After centrifugation at 10,000×g for 5 min at 4°C, the organic phase containing rhamnolipids was obtained and evaporated at room temperature overnight. […] The absorbance was measured at 420 nm. (5) The level of C4-HSL was quantified by GC-MS as previously described ([Guo et al., 2012]).

MRPA0108 strain = conditions: previous study, ref Han et al., 2020; cited from earlier work
Source text: Supplement Table_1.docx, table 1: Table S1 Biological characteristics and antibacterial activities of the Trp-containing antimicrobial peptides (32) | column: MIC(μM)

In the case of `CC[C@H](C)[C@H](NC(=O)[C@H](CCCCN)NC(=O)[C@H](CO)NC(=O)[C@H](CC(C)C)NC(=O)[C@@H](NC(=O)[C@H](CCCCN)NC(=O)[C@H](CCCCN)NC(=O)[C@@H](N)Cc1c[nH]c2ccccc12)[C@@H](C)CC)C(=O)N[C@@H](CCCCN)C(=O)N[C@@H](CCCCN)C(=O)N[C@@H](CC(C)C)C(=O)N[C@@H](CC(C)C)C(=O)N[C@@H](CCCCN)C(N)=O` [I1W] (H-WKKILSKIKKLLK-NH2; N-terminus and C-terminus assumed), the “decrease of LasB elastase activity” value [1] is listed as 21.0% and the MIC (MRPA0108 strain) is listed as 6.25 µM (≈ 10.2 µg/mL).
